Assay results: patent US9937220B2, “Anti-diabetic nutraceutical composition from palm leaf extract” (priority 2009, dated 2018)

Tested on: STZ-induced diabetic rats
Assay: Body weight of STZ-induced diabetic rats
Type: in vivo, rat
Conditions: glibenclamide treated group (30 mg/kg)
Description: Adult normal and streptozotocin-induced diabetic male Sprague Dawley rats were randomly divided into groups. Palm leaf aqueous and alcoholic extracts (PLE) were fed to normal and STZ-induced diabetic rats at 50-200 mg/kg for 8 weeks. Blood sugar levels from fasting rats were monitored weekly. Untreated rats were used as negative control and glibenclamide (30 mg/kg) treated rats used as positive control.

COc1ccc(Cl)cc1C(=O)NCCc1ccc(S(=O)(=O)NC(=O)NC2CCCCC2)cc1 [glibenclamide]
changes in body weight: Significant changes in body weight
